Laboratory results reported in patent US9656981B2, “Peripherally-acting cannabinoid receptor agonists for chronic pain” (The Regents of the University of California, priority 2012, dated 2017).

What was measured:
[1] = Pharmacokinetic profiling: plasma, CSF and brain levels by LC-MS/MS; format: in vivo, rat
Method: Pharmacokinetic profiling of novel compounds is prerequisite to their clinical development. […] Plasma, cerebrospinal fluid (CSF), and brain samples were analyzed by LC-MS/MS and quantified using standard curves prepared from appropriate drug dilutions in fluids obtained from untreated animals.
Measurements of brain levels are a must for putative peripherally-restricted analogs. Total brain levels include drug partitioned into brain lipids+unbound drug in equilibrium with extracellular fluid. Therefore, cerebrospinal fluid (CSF)/plasma ratios are considered to be more precise estimates of brain penetration of a given drug because of the continuity of CSF with extracellular space^174. However, both measures are needed to confirm minimal CNS access and to compare with other reported peripherally-restricted CB1R ligands^110, 111. […] Plasma, brain and CSF samples were obtained at ˜75 min after PrNMI administration. Data presented as mean±SEM, n=3 rats.

[2] = test system: sciatic nerve entrapment (SNE) neuropathy; experiment: SNE neuropathy, mechanical allodynia (von Frey); format: in vivo, rat
Method: The effectiveness of CBR agonists was tested for alleviating the painful symptoms of neuropathy induced by unilateral sciatic nerve entrapment (SNE)^131. The peripheral neuropathy induced by SNE is highly comparative to that of chronic constriction injury (CCI), which uses chromic gut suture materials instead of polyethylene cuffs^132. […] This increased excitability is at least in part attributable to injury-induced post-transcriptional transport of the voltage-gated sodium channel 1.8 (NaV1.8) mRNA, axonal accumulation of NaV1.8 mRNA, and its local protein translation leading to the increased NaV1.8 functional expression in injured nerve^136. The hyperexcitability and ectopic burst discharge of primary sensory neurons are widely considered to be the major contributors to pain symptomatology of peripheral neuropathy models. The SNE-induced mechanical allodynia effectively models the most common complaint of human neuropathy patients of dynamic mechanical allodynia. Behavioral measurements of mechanical sensitivity were conducted before and after induction of SNE as follows:
Rats are placed in a plastic-walled cage (10×20×13 cm) with a metal mesh floor (0.6×0.6 cm holes) and allowed to acclimate for 10 min. The amount of pressure (g) needed to evoke a hindpaw withdrawal response is measured 4 times on each paw separated by 30-s intervals using a von Frey-type digital meter (Model 1601C, IITC Instr.). Results of 4 tests/session are averaged for each paw.

In the case of `CCCc1ccc(/C=C2\C=C(CCN3CCOCC3)c3ccccc32)c2ccccc12` [Compound 9, 4-{2-[(1E)-1-[(4-propylnaphthalen-1-yl)methylidene]-1H-inden-3-yl]ethyl} morpholine], the “penetration into the CNS after systemic administration” value ([1]; plasma, brain and CSF samples) is reported as “minimal penetration”, the Kp ([1]; rat, CSF and plasma, intraperitoneal, 0.3 mg/kg, i.p., ~75 min after administration, mean±SEM, n=3 rats) is reported as 0.001 ± 0.0005 and the Kp at 1.25 h ([1]; rat, brain and plasma, ip, 0.3 mg/kg, i.p., ~75 min after administration, mean±SEM, n=3 rats) is reported as 0.182 ± 0.043. The “effect on SNE-induced mechanical allodynia (ipsilateral hindpaw withdrawal thresholds)” value ([2]; 0.3 mg/kg, systemic injection) was “large, reversible increases”, the “SNE Neuropath Assay-% return to pre-drug (0.3 mg/kg) contralateal threshold at 2-3 h” value ([2]; 0.3 mg/kg, 2-3 h) was 110% and the “effect on contralateral hindpaw withdrawal thresholds” value ([2]; 0.3 mg/kg, hindpaw contralateral to SNE) was “small, but significant increases”. For the same compound, the “effect on SNE-induced mechanical allodynia” value ([2]; 0.6 mg/kg) was “Suppression of SNE-induced mechanical allodynia”, the “suppression of neuropathy symptoms after oral administration” value ([2]; 3 mg/kg, gavage) was “effective in suppressing neuropathy symptoms” and the “anti-allodynic effects at the 24 hr time point after oral administration” value ([2]; 3 mg/kg, gavage, 24 hr) was “potent anti-allodynic effects”.
